Laboratory results from patent US20250011318A1 (ARCUS BIOSCIENCES, INC., priority 2023, published 2025).

Tests used:
Cbl-b = biological target: T1, Cbl-b (Homo sapiens, UniProt Q13191); experiment: Cbl-b probe displacement HTRF binding assay; conditions: 0.4 nM biotinylated Cbl-b, 150 nM BODIPY probe
T1 construct: biotin (biotinylated)
Method in brief: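 Biotinylated Cbl-b (0.4 nM) preincubated 60 min at RT with compound (20-point 1:2 series, 10 μM top), then 150 nM BODIPY probe for 15 min, then streptavidin-terbium detection. Buffer: 20 mM Hepes, 150 mM NaCl, 0.01% Triton X-100, 0.5 mM TCEP, 0.01% BSA. Loss of HTRF signal gave IC50 via four-parameter fit.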

Jurkat cells = experiment: IL-2 secretion assay in CD3/CD28-activated Jurkat cells (AlphaLISA); type: cell-based, human; conditions: Homo sapiens, CD3/CD28 T Cell Activator, 24 h, IL-2 AlphaLISA
Method in brief: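 Jurkat cells (50,000/well) preincubated 1 h at 37° C with compound (16-point 1:2 series, final 10 μM to 300 pM) in Opti-MEM, then stimulated with CD3/CD28 activator for 24 h. Supernatant IL-2 read by AlphaLISA; EC50 from 4-parameter logistic fit.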

T1 sequence (Q13191 whole entry, species assumed): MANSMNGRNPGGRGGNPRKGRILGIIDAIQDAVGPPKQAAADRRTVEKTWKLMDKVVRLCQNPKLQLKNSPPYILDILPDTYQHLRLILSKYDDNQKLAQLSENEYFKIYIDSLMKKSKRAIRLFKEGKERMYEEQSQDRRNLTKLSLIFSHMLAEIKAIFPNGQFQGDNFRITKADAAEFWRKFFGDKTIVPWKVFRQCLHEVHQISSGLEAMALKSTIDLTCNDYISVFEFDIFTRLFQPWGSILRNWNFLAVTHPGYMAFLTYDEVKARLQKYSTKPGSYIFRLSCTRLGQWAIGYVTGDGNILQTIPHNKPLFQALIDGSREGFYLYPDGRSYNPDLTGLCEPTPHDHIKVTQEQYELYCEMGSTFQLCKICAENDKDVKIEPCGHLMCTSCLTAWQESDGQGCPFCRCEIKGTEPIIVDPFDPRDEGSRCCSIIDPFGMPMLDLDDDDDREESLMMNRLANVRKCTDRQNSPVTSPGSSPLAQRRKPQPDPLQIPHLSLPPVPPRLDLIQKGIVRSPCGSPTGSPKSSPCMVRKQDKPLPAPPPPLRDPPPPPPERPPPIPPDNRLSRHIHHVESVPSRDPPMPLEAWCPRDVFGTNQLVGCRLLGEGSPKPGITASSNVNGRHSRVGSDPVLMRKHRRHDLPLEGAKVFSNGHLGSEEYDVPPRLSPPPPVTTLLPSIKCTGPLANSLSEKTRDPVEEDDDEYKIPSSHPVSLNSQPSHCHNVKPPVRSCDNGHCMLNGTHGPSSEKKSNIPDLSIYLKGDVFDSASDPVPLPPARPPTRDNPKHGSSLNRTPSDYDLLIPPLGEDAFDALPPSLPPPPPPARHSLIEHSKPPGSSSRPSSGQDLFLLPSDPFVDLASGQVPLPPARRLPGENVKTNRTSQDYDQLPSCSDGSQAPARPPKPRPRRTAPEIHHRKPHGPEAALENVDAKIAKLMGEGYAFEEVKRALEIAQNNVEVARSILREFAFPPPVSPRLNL

Structure (SMILES)	IC50 (Cbl-b)	EC50 (Jurkat cells)
Cn1cnnc1-c1cc(F)ccc1-c1cc(C2CC2)nc(-n2cc(C(F)(F)F)c3nc(C4CC4)[nH]c3c2=O)c1 [Example 39, 2-cyclopropyl-5-[6-cyclopropyl-4-[4-fluoro-2-(4-methyl-1,2,4-triazol-3-yl)phenyl]pyridin-2-yl]-7-(trifluoromethyl)-3H-imidazo[4,5-c]pyridin-4-one]	< 100 nM	< 100 nM
Cn1cnnc1-c1cc(F)ccc1-c1cc(C2CC2)nc(-n2cc(C(F)(F)F)c3nc(C4CCC4)[nH]c3c2=O)c1 [Example 40, 2-Cyclobutyl-5-[6-cyclopropyl-4-[4-fluoro-2-(4-methyl-1,2,4-triazol-3-yl)phenyl]pyridin-2-yl]-7-(trifluoromethyl)-3H-imidazo[4,5-c]pyridin-4-one]	< 100 nM	< 100 nM
COCCCc1nc2c(C(F)(F)F)cn(-c3cc(-c4ccc(F)cc4-c4nncn4C)cc(C4CC4)n3)c(=O)c2[nH]1 [Example 41, 5-{6-Cyclopropyl-4-[4-fluoro-2-(4-methyl-4H-1,2,4-triazol-3-yl)phenyl]-2-pyridyl}-2-(3-methoxypropyl)-7-(trifluoromethyl)-3,5-dihydro-1,3,5-triaza-4-indenone]	< 100 nM	< 100 nM
Cn1cnnc1-c1cc(F)ccc1-c1cc(C2CC2)nc(-n2cc(C(F)(F)F)c3nc(CC4CCC4)[nH]c3c2=O)c1 [Example 42, 2-(Cyclobutylmethyl)-5-{6-cyclopropyl-4-[4-fluoro-2-(4-methyl-4H-1,2,4-triazol-3-yl)phenyl]-2-pyridyl}-7-(trifluoromethyl)-3,5-dihydro-1,3,5-triaza-4-indenone]	< 100 nM	< 100 nM
Cn1cnnc1-c1cc(F)ccc1-c1cc(C2CC2)nc(-n2cc(C(F)(F)F)c3nc(CC4CCCCC4)[nH]c3c2=O)c1 [Example 43, 2-(Cyclohexylmethyl)-5-{6-cyclopropyl-4-[4-fluoro-2-(4-methyl-4H-1,2,4-triazol-3-yl)phenyl]-2-pyridyl}-7-(trifluoromethyl)-3,5-dihydro-1,3,5-triaza-4-indenone]	< 100 nM	< 100 nM
CC(=O)N1CCC[C@H]1c1nc2c(C(F)(F)F)cn(-c3cc(-c4ccc(F)cc4-c4nncn4C)cc(C4CC4)n3)c(=O)c2[nH]1 [Example 45, 2-[(2S)-1-acetylpyrrolidin-2-yl]-5-[6-cyclopropyl-4-[4-fluoro-2-(4-methyl-1,2,4-triazol-3-yl)phenyl]pyridin-2-yl]-7-(trifluoromethyl)-3H-imidazo[4,5-c]pyridin-4-one]	< 100 nM	100 to 1000 nM
C[C@@H](c1nc2c(C(F)(F)F)cn(-c3cc(-c4ccc(F)cc4-c4nncn4C)cc(C4CC4)n3)c(=O)c2[nH]1)C1CC1 [Example 46, 2-[(1R)-1-cyclopropylethyl]-5-[6-cyclopropyl-4-[4-fluoro-2-(4-methyl-1,2,4-triazol-3-yl)phenyl]pyridin-2-yl]-7-(trifluoromethyl)-3H-imidazo[4,5-c]pyridin-4-one]	< 100 nM	< 100 nM
Cn1cc(C#N)nc1-c1cc(F)ccc1-c1cc(C2CC2)nc(-n2cc(C(F)(F)F)c3nc([C@@H]4CCOC4)[nH]c3c2=O)c1 [Example 47, 2-[2-(2-{2-[(S)-Tetrahydro-3-furyl]-4-oxo-7-(trifluoromethyl)-3,5-dihydro-1,3,5-triaza-5-indenyl}-6-cyclopropyl-4-pyridyl)-5-fluorophenyl]-1-methyl-4-imidazolecarbonitrile]	< 100 nM	< 100 nM
Cn1cc(C#N)nc1-c1cc(F)ccc1-c1cc(C2CC2)nc(-n2cc(C(F)(F)F)c3nc([C@H]4CCOC4)[nH]c3c2=O)c1 [Example 48, 2-[2-(2-{2-[(R)-Tetrahydro-3-furyl]-4-oxo-7-(trifluoromethyl)-3,5-dihydro-1,3,5-triaza-5-indenyl}-6-cyclopropyl-4-pyridyl)-5-fluorophenyl]-1-methyl-4-imidazolecarbonitrile]	< 100 nM	< 100 nM
